Source: patent US9850216B2 (H. LEE MOFFITT CANCER CENTER AND RESEARCH INSTITUTE, INC., priority 2013, dated 2017)
“And” between values parts separate entries of the source, which are not always exact repeats. Equal values may be shown once. Where a name gives a salt, the structure may show the parent alone. Read-outs that look alike come from different tables or passages of the source. One block for each compound: values may come before it.

Key:
[1] = target: T1, ACK1 (Homo sapiens, UniProt Q07912); experiment: 32P Hotspot assay (Reaction Biology), ACK1 IC50; type: biochemical
T1 sequence (Q07912 whole entry): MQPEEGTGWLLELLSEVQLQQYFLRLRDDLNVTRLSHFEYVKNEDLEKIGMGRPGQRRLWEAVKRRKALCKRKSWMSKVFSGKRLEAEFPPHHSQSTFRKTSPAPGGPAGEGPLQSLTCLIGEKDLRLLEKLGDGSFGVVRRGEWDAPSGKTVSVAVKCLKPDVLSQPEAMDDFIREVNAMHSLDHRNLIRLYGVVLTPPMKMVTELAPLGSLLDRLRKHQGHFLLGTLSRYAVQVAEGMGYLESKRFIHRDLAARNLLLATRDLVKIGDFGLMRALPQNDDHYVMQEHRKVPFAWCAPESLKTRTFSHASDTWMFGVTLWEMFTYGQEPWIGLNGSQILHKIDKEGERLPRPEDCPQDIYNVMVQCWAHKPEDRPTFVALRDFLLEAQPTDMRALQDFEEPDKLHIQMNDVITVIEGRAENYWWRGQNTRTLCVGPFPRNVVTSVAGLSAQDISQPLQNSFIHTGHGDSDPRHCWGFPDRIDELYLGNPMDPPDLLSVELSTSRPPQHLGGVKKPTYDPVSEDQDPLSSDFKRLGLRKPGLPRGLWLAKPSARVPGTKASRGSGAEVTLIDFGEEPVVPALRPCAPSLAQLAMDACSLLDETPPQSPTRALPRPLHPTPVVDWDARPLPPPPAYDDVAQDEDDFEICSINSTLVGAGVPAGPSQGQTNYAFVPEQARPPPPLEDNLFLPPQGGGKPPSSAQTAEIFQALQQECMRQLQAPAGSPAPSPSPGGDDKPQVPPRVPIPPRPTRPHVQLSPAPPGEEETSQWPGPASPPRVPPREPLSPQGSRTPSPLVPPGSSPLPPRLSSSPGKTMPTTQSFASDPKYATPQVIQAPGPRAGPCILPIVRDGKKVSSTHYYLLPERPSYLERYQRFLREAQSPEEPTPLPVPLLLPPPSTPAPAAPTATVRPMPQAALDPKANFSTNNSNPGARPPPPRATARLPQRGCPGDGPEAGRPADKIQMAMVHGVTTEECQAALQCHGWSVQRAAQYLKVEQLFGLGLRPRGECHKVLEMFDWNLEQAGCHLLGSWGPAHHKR
Procedure: 8 compounds were tested against […], ACK1, Src and ALK in various combinations. […] Reactions were carried out at 10 μM ATP.

[2] = target: T1, ACK1; experiment: ACK1 ELISA: phosphorylation of AKT-derived peptide; type: biochemical
[3] = system: LAPC4 cells; experiment: Cell growth, LAPC4; type: cell-based, human
Text: Selected compounds from the library 9 were chosen to evaluate the effects of ACK1 inhibition in LAPC4 human prostate cancer cells with inhibition of cell growth as a read out. […] Based on the findings from cell culture data, enantiomers of 9b were synthesized to understand the ACK1 inhibitory activities of individual stereoisomers. […] The synthesis of (R)-9b and (S)-9b are shown in the Scheme 4 and other examples of enantiomerically pure compounds (not reported here) were also synthesized using the protocols in the Scheme 4.
Three distinct human prostate cancer derived cell lines, LNCaP, LAPC4 and VCaP were either DMSO treated or treated with 1, 2.5, 5, 7.5 and 10 μM of inhibitors, AIM-100, (R)-9b and (S)-9b for 36 hrs and the number of viable cells were counted by trypan blue exclusion assay.

[4] = system: AR; experiment: AR mRNA by real time PCR in androgen-deprived prostate cancer cells; type: cell-based, human; details: overnight treatment (FIG. 3a, b)
Text: Total RNA was isolated followed by qPCR with AR primers. VCaP, *p=0.022; LNCaP, *p=0.042, **p=0.047. […] Total RNA was isolated followed by qPCR with PSA primers.

[5] = system: AR; experiment: AR protein levels in androgen-deprived prostate cancer cells, immunoblotting; type: cell-based, human; details: immunoblotting (FIG. 2)
Procedure: Transcriptional regulation of the AR gene itself is a paradigm that merits thorough investigation. […] Whether AR utilizes ACK1 to facilitate its transcriptional co-activator function is not known. […] Cells were also treated with ACK1-specific small molecule inhibitors, DZ1-067 or AIM-100.

[6] = Table 2, read-out: IC50 (32P Hotspot assay)
[7] = 10 μM, Table 2, library 9, read-out: % Inhibition @ 10 μM (ELISA)
[8] = Table 1, nM, (RB) = Reaction Biology, replicates listed, read-out: IC50
[9] = 10 μM, Table 1, replicate values listed
[10] = Table 1, unit inferred, (RB) = Reaction Biology, replicates listed, read-out: IC50
[11] = 10 μM, Table 1, replicate values listed, read-out: % Inhibition at 10 μM (ELISA)
[12] = 10 μM, Table 1, replicate values listed, hydrochloride
[13] = 32P hotspot / enzymatic assay, read-out: ACK1 IC50
[14] = Table 3, 10-dose, 3-fold dilution from 10 μM, 10 μM ATP, read-out: Compound IC50* (M): ACK1
[15] = Table 4, 10-dose, 10 μM ATP, read-out: Compound IC50 (M), ACK1

Compound: Cl.Oc1ccc(Nc2ncc(Br)c(NCC3CCCO3)n2)cc1F (stereo not shown) [SK1-044, 4-(5-bromo-4-((tetrahydrofuran-2-yl)methylamino)pyrimidin-2-ylamino)-2-fluorophenol]
- IC50 [1, 8]: 299 nM
- % Inhibition at 10 μM (ELISA) [2, 9]: 89% and 63% and 28% and 38%

Compound: O=C(O)C1CCN(c2ccc(Nc3ncc(Cl)c(NC[C@@H]4CCCO4)n3)cc2)CC1 [DZ1-082, (S)-1-(4-(5-chloro-4-((tetrahydrofuran-2-yl)methylamino)pyrimidin-2-ylamino)phenyl)piperidine-4-carboxylic acid]
- IC50 [1, 10]: 54.7 nM
- % Inhibition at 10 μM (ELISA) [2, 9]: 94%
- inhibition at 10 µM [2, 11]: 92%

Compound: CCOC(=O)C1CCN(c2ccc(Nc3ncc(Cl)c(NCC4CCCO4)n3)cc2)CC1.Cl (stereo not shown) [YL8-047, Ethyl 1-(4-(5-chloro-4-((tetrahydrofuran-2-yl)methylamino)pyrimidin-2-ylamino)phenyl)piperidine-4-carboxylate hydrochloride]
- IC50 [1, 8]: 108 nM
- % Inhibition at 10 μM (ELISA) [2, 12]: 67% and 69%
- inhibition at 10 µM [2, 11]: 65%

Compound: O=C(O)C1CCN(c2ccc(Nc3ncc(Cl)c(NC[C@H]4CCCO4)n3)cc2)CC1 [DZ1-072, (R)-1-(4-(5-chloro-4-((tetrahydrofuran-2-yl)methylamino)pyrimidin-2-ylamino)phenyl)piperidine-4-carboxylic acid]
- IC50 [1, 10]: 91.6 nM
- % Inhibition at 10 μM (ELISA) [2, 9]: 95%
- inhibition at 10 µM [2, 11]: 96%

Compound: O=C(Nc1c(F)cccc1Cl)c1cnc(Nc2ccc(N3CCNCC3)cc2)nc1NCC1CCCO1 (stereo not shown) [YL9-162, N-(2-chloro-6-fluorophenyl)-2-(4-(piperazin-1-yl)phenylamino)-4-((tetrahydrofuran-2-yl)methylamino)pyrimidine-5-carboxamide TFA salt]
- IC50 [1, 10]: 33.2 nM
- % Inhibition at 10 μM (ELISA) ([2]; 10 μM, Table 1, replicate values listed, TFA salt): 88%
- inhibition at 10 µM ([2]; read-out: % Inhibition at 10 μM (ELISA), 10 μM, Table 1, replicate values listed): 91%

Compound: Cl.Oc1ccc(Nc2ncc(Br)c(NCC3CCCO3)n2)cc1 (stereo not shown) [SK1-028, 4-(5-Bromo-4-((tetrahydrofuran-2-yl)methylamino)pyrimidin-2-ylamino)phenol hydrochloride]
- IC50 [1, 14]: 164 nM
- % Inhibition at 10 μM (ELISA) [2, 12]: 59% and 81% and 85% and 65% and 67%

Compound: Brc1cnc(Nc2ccc(N3CCNCC3)cc2)nc1NCC1CCCO1 (stereo not shown) [YL9-167, 5-Bromo-N2-(4-(piperazin-1-yl)phenyl)-N4-((tetrahydrofuran-2-yl)methyl)pyrimidine-2,4-diamine TFA salt]
- IC50 [1, 14]: 94.7 nM

Compound: Clc1cnc(Nc2ccc(N3CCOCC3)cc2)nc1NC[C@H]1CCCO1 [DZ1-064]
- IC50 [1, 10]: 46.5 nM

Compound: Clc1cnc(Nc2ccc(N3CCOCC3)cc2)nc1NC[C@@H]1CCCO1 [DZ1-074]
- IC50 [1, 10]: 74.1 nM

Compound: Oc1ccc(Nc2ncc(Cl)c(NCC3CCCO3)n2)cc1 (stereo not shown) [DZ1-120, 4-(5-chloro-4-((tetrahydrofuran-2-yl)methylamino)pyrimidin-2-ylamino)phenol]
- IC50 [1, 10]: 163 nM
- IC50 [1, 14]: 163 nM
- % Inhibition at 10 μM (ELISA) [2, 9]: 58%
- inhibition at 10 µM [2, 11]: 73%

Compound: Cc1cc(Nc2ncc(Br)c(NCC3CCCO3)n2)ccc1O.Cl (stereo not shown) [SK1-040, 4-(5-bromo-4-((tetrahydrofuran-2-yl)methylamino)pyrimidin-2-ylamino)-2-methylphenol]
- IC50 [1, 8]: 99.5 nM
- % Inhibition at 10 μM (ELISA) [2, 9]: 90% and 61% and 56% and 57%

Compound: CN1CCN(c2ccc(Nc3ncc(C(=O)Nc4c(F)cccc4Cl)c(NCC4CCCO4)n3)cc2)CC1 (stereo not shown) [DZ1-114, N-(2-chloro-6-fluorophenyl)-2-(4-(4-methylpiperazin-1-yl)phenylamino)-4-((tetrahydrofuran-2-yl)methylamino)pyrimidine-5-carboxamide]
- IC50 [1, 14]: 48.3 nM
- % Inhibition at 10 μM (ELISA) [2, 9]: 95%
- inhibition at 10 µM [2, 11]: 99%

Compound: CN1CCN(c2ccc(Nc3ncc(Cl)c(NCC4CCCO4)n3)cc2)CC1 (stereo not shown) [MH1-022-5, 5-chloro-N2-(4-(4-methylpiperazin-1-yl)phenyl)-N4-((tetrahydrofuran-2-yl)methyl)pyrimidine-2,4-diamine]
- IC50 [1, 15]: 54.4 nM
- % Inhibition at 10 μM (ELISA) [2, 9]: 91%
- inhibition at 10 µM [2, 11]: 90%

Compound: CCCS(=O)(=O)Nc1ccc(F)c(C(=O)c2c[nH]c3ncc(-c4ccc(Cl)cc4)cc23)c1F [PLX4032]
- AR mRNA levels [4]: no significant change
- AR protein levels [5]: little effect on AR expression

Compound: Cl.O=C(Nc1c(F)cccc1Cl)c1cnc(Nc2ccc(N3CCC(C(=O)O)CC3)cc2)nc1NCC1CCCO1 (stereo not shown) [DZ1-096]
- IC50 [1, 10]: 36.3 nM and 32.2 nM
- IC50 [1, 15]: 32.2 nM
- % Inhibition at 10 μM (ELISA) [2, 9]: 98, 98%
- inhibition at 10 µM [2, 11]: 98%

Compound: O=C(Nc1c(F)cccc1Cl)c1cnc(Nc2ccc(N3CCNCC3)cc2)nc1NCC1CCCO1 (stereo not shown) [Compound 9m]
- cellular potency, ACK1 inhibition in LAPC4 cells with cell growth as read out [3]: did not display the expected cellular potency
- inhibition at 10 µM ([2]; read-out: % Inhibition @ 10 μM (ELISA), 10 μM, Table 2, library 9): 89.5 ± 2.1%

Compound: Cl.O=C(Nc1c(F)cccc1Cl)c1cnc(Nc2ccc(C3CCNCC3)cc2)nc1NCC1CCCO1 (stereo not shown) [DZ1-089, N-(2-chloro-6-fluorophenyl)-2-(4-(piperidin-4-yl)phenylamino)-4-((tetrahydrofuran-2-yl)methylamino)pyrimidine-5-carboxamide]
- IC50 [1, 10]: 53.3 nM
- % Inhibition at 10 μM (ELISA) [2, 9]: 97, 97%

Compound: Clc1cnc(Nc2ccc(N3CCOCC3)cc2)nc1NCC1CCCO1 (stereo not shown) [Compound 9c]
- IC50 [1, 6]: 67.5 nM

Compound: Cc1cc(Nc2ncc(Cl)c(Nc3ccccc3S(=O)(=O)C(C)C)n2)c(OC(C)C)cc1C1CCNCC1 [LDK, reference compound]
- IC50 [1, 10]: 88.7 nM

Compound: Brc1cnc(Nc2ccc(N3CCOCC3)cc2)nc1NCC1CCCO1.Cl (stereo not shown) [DZ1-091, 5-bromo-N2-(4-morpholinophenyl)-N4-((tetrahydrofuran-2-yl)methyl)pyrimidine-2,4-diamine]
- IC50 [1, 10]: 106 nM
- % Inhibition at 10 μM (ELISA) [2, 9]: 90%
- inhibition at 10 µM [2, 11]: 88%

Compound: O=C(O)CCC(=O)N1CCN(c2ccc(Nc3ncc(C(=O)Nc4c(F)cccc4Cl)c(NCC4CCCO4)n3)cc2)CC1 (stereo not shown) [YL9-163, 4-(4-(4-(5-(2-Chloro-6-fluorophenylcarbamoyl)-4-((tetrahydrofuran-2-yl)methylamino)pyrimidin-2-ylamino)phenyl)piperazin-1-yl)-4-oxobutanoic acid]
- IC50 [1, 14]: 28.4 nM
- % Inhibition at 10 μM (ELISA) [2, 9]: 93%
- inhibition at 10 µM [2, 11]: 85%

Compound: CCS(=O)(=O)c1ccccc1Nc1nc(Cl)ncc1C(=O)Nc1c(F)cccc1Cl [YL7-054, 2-Chloro-N-(2-chloro-6-fluorophenyl)-4-(2-(ethylsulfonyl)phenylamino)pyrimidine-5-carboxamide]
- melting point: 230 to 233 °C
- % Inhibition at 10 μM (ELISA) [2, 9]: 0% and −3% and −25%

Compound: CN1CCN(c2ccc(Nc3ncc(Br)c(NCC4CCCO4)n3)cc2)CC1 (stereo not shown) [DZ1-122, 5-bromo-N2-(4-(4-methylpiperazin-1-yl)phenyl)-N4-((tetrahydrofuran-2-yl)methyl)pyrimidine-2,4-diamine]
- IC50 [1, 10]: 48 nM
- % Inhibition at 10 μM (ELISA) [2, 9]: 91%
- inhibition at 10 µM [2, 11]: 95%

Compound: O=C(Nc1c(F)cccc1Cl)c1cnc(Nc2ccc(O)cc2)nc1NCC1CCCO1 (stereo not shown) [YL7-104-2, N-(2-chloro-6-fluorophenyl)-2-(4-hydroxyphenylamino)-4-((tetrahydrofuran-2-yl)methylamino)pyrimidine-5-carboxamide]
- IC50 [1, 8]: 54.4 nM
- % Inhibition at 10 μM (ELISA) [2, 9]: 76%
- inhibition at 10 µM [2, 11]: 85%

Second part, led by results:

- IC50 [1, 6]: 169 nM
- inhibition at 10 µM [2, 7]: 84.5 ± 0.7%
Compound: Brc1cnc(Nc2ccc(C3CCNCC3)cc2)nc1NCC1CCCO1 (stereo not shown) [Compound 9k]

- IC50 [1, 6]: 47.7 nM
- inhibition at 10 µM [2, 7]: 82 ± 7.7%
Compound: O=C(Nc1c(F)cccc1Cl)c1cnc(Nc2ccc(N3CCOCC3)cc2)nc1NCC1CCCO1 (stereo not shown) [Compound 9n]
- cellular potency, ACK1 inhibition in LAPC4 cells with cell growth as read out [3]: did not display the expected cellular potency

- IC50 [1, 13]: 81 nM
- % Inhibition @ 10 μM (ELISA) ([2]; 10 μM, Table 2, library 9): 82 ± 12.7%
Compound: Clc1cnc(Nc2ccc(N3CCNCC3)cc2)nc1NCC1CCCO1 (stereo not shown) [Compound 9a]

- IC50 [1, 13]: 85 nM
- inhibition at 10 µM [2, 7]: 93 ± 5.1%
Compound: O=C(O)C1CCN(c2ccc(Nc3ncc(Cl)c(NCC4CCCO4)n3)cc2)CC1 (stereo not shown) [Compound 9e]

- inhibition at 10 µM [2, 7]: 90.5 ± 0.7%
Compound: CN1CCN(c2ccc(Nc3ncc(Cl)c(NCC4CCCO4)n3)cc2)CC1 (stereo not shown) [Compound 9b]
- cellular potency, ACK1 inhibition in LAPC4 cells with cell growth as read out [3]: promising ACK1 inhibitory activities in cellular assays

- IC50 [1, 13]: 231 nM
- inhibition at 10 µM [2, 7]: 79.5 ± 0.7%
Compound: Clc1cnc(Nc2ccc(C3CCNCC3)cc2)nc1NCC1CCCO1 (stereo not shown) [Compound 9f]

- IC50 [1, 13]: 34 nM and 32 nM
- IC50 [1, 6]: 34.2 nM
- inhibition at 10 µM [2, 7]: 98%
Compound: O=C(Nc1c(F)cccc1Cl)c1cnc(Nc2ccc(N3CCC(C(=O)O)CC3)cc2)nc1NCC1CCCO1 (stereo not shown) [Compound 9s]
